Measured values from patent publication US7829568B2, “Substituted 5,6,7,8-tetrahydroimidazo[1,2-a]pyridin-2-ylamine compounds and their use for producing drugs” (Gruenenthal GmbH, priority 2005, dated 2010).

Molecular target: T1, human μ-opioid receptor (Homo sapiens, UniProt P35372)
T1 construct: purchased NEN, Zaventem, Belgium RB-HOM; host or cells: CHO-K1 cells (membrane preparation)
Assay: Affinity to the human μ-opioid receptor ([3H]-naloxone displacement, SPA)
Format: binding
Conditions: compound 1 μmol/l, 1 nmol/l [3H]-naloxone, CHO-K1 membrane preparation; for inhibition at 1 µM: read-out: μ-opioid receptor (man) (% inhibition)
Procedure: III. Method for Determining the Affinity to the Human μ-Opioid Receptor
The receptor affinity to the human μ-opioid receptor is determined in a homogeneous batch in microtitre plates. In this case, dilution series of the respective substituted 5,6,7,8-tetrahydro-imidazo[1,2-a]pyridin-2-ylamine compound of the general formula I to be tested are incubated with a receptor membrane preparation (15-40 μg of protein per 250 μl of the incubation batch) of CHO-K1 cells which express the human μ-opioid receptor (μ-opiate receptor) (RB-HOM receptor membrane preparation from NEN, Zaventem, Belgium) in the presence of 1 nmol/l of the radioactive ligands [^3H]-naloxone (NET719, NEN, Zaventem, Belgium) and also 1 mg of WGA SPA beads (wheat germ agglutinin SPA beads from Amersham Pharmacia, Freiburg, Germany) in a total volume of 250 μl at room temperature for 90 minutes. 50 mmol/l tris-HCl are used as an incubation buffer with 0.05% by weight of sodium azide and 0.06% by weight of bovine serum albumin. 25 μmol/l naloxone are also added to determine the non-specific bond. At the end of the 90 minute incubation period, the microtitre plates are centrifuged off for 20 minutes at 1000 g and the radioactivity is measured with a β-counter (Microbeta-Trilux, PerkinElmer Wallac, Freiburg, Germany. The percentage of displacement of the radioactive ligand from its bond to the human μ-opiate receptor at a concentration of 1 μmol/l of the compound to be tested is determined and indicated as a % inhibition of the specific bond.

T1 sequence (P35372 whole entry): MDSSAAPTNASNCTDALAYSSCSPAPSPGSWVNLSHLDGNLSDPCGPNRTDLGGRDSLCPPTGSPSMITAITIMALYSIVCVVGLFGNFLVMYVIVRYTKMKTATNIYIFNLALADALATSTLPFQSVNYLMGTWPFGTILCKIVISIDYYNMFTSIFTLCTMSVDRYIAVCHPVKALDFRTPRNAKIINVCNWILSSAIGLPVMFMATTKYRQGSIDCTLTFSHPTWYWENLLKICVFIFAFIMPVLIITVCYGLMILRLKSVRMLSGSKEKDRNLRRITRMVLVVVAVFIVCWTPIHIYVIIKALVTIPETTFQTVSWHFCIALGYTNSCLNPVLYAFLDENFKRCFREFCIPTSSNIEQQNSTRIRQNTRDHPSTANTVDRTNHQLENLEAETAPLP

Row | Compound | inhibition at 1 µM [%] | μ-opioid receptor (man) (% inhibition) [%]
1 | Cc1cc(Cl)cc(Cl)c1CNC(=O)c1c(N(C)C(=O)c2ccccc2)nc2n1CCCC2 [Example 188, 2-(benzoyl-methyl-amino)-5,6,7,8-tetrahydro-imidazo[1,2-a]pyridine-3-carboxylic acid 2,4-dichloro-6-methyl-benzylamide] | 59 | 
2 | CN(C(=O)c1cccc(Cl)c1)c1nc2n(c1C(=O)N1CCN(CCc3ccccc3)CC1)CCCC2 [Example 106, 3-chloro-N-methyl-N-[3-(4-phenethyl-piperazine-1-carbonyl)-5,6,7,8-tetrahydro-imidazo[1,2-a]pyridin-2-yl]-benzamide] | 30 | 
3 | CN(C(=O)Cc1ccccc1)c1nc2n(c1C(=O)N1CCN(c3ccccc3)CC1)CCCC2 [Example 186, N-methyl-2-phenyl-N-[3-(4-phenyl-piperazine-1-carbonyl)-5,6,7,8-tetrahydro-imidazo[1,2-a]pyridin-2-yl]-acetamide] | 48 | 
4 | CCCCN(C(=O)c1ccc(F)c(F)c1)c1nc2n(c1C(=O)NCCC(c1ccccc1)c1ccccc1)CCCC2 [Example 180, 2-[butyl-(3,4-difluoro-benzoyl)-amino]-5,6,7,8-tetrahydro-imidazo[1,2-a]pyridine-3-carboxylic acid (3,3-diphenyl-propyl)-amide] | 47 | 
5 | CCCCN(C(=O)c1cccc(Cl)c1)c1nc2n(c1C(=O)NCCSCc1c(Cl)cccc1Cl)CCCC2 [Example 95, 2-[butyl-(3-chloro-benzoyl)-amino]-5,6,7,8-tetrahydro-imidazo[1,2-a]pyridine-3-carboxylic acid [2-(2,6-dichlor-benzylsulphanyl)-ethyl]-amide] |  | 53
6 | CC(CCc1ccccc1)NC(=O)c1c(N(C)C(=O)c2cccc3ccccc23)nc2n1CCCC2 (centres unmarked) [Example 112, 2-[methyl-(naphthalene-1-carbonyl)-amino]-5,6,7,8-tetrahydro-imidazo[1,2-a]pyridine-3-carboxylic acid (1-methyl-3-phenyl-propyl)-amide] | 51 | 
7 | CN(C(=O)c1cccc2ccccc12)c1nc2n(c1C(=O)NCc1cc(C(F)(F)F)cc(C(F)(F)F)c1)CCCC2 [Example 15, 2-[Methyl-(naphthalene-1-carbonyl)-amino]-5,6,7,8-tetrahydro-imidazo[1,2-a]pyridine-3-carboxylic acid 3,5-bis-trifluoromethyl-benzylamide] | 35 | 
8 | CCCCN(C(=O)c1cccc(Cl)c1)c1nc2n(c1C(=O)Nc1ccc3c(c1)OCCO3)CCCC2 [Example 181, 2-[butyl-(3-chloro-benzoyl)-amino]-5,6,7,8-tetrahydro-imidazo[1,2-a]pyridine-3-carboxylic acid (2,3-dihydro-benzo[1,4]dioxin-6-yl)-amide] | 58 | 
